For 89 molecules, melting point results are on record in a melting point compilation (Tetko et al.; mined from patent text by program, amines drawn as free bases though some values may be those of a salt).

`COc1ccc2c(c1)C13CCN(CC4CC4)C(C2)C1(Cc1ccccc1)CCC1(C3)OCCO1` (centres undefined) registered a melting point of 165 to 167 °C. In the case of `O=c1ccc(C(c2ccccc2)c2ccc(Cl)cc2)c[nH]1` (centres undefined) it was 164 to 169 °C. As for `CC(=O)Cc1ccc2c(c1)-c1[nH]c3ccc(C(F)(F)F)cc3c1CC(=O)N2`, the figure is 295 to 297 °C. As for `Cn1nc(C(O)c2ccccn2)nc1NCCCOc1cccc(CN2CCCCC2)c1` (centres undefined), the figure is 152 to 154 °C; as for `CCc1ccc(C2=NC(C)(C(C)C)C(=O)N2CC(=O)O)nc1` (centres undefined), 134 to 136 °C; as for `CSc1nn(C(C)(C)C)c(=O)c(Cl)c1C1C=CC(C(C)(C)C)CC1` (centres undefined), 82 to 84 °C. For `CCCCCCn1c(=O)c2cn(CC)nc2n(C)c1=O`, the melting point lay in the range of 107 to 108 °C. Take `Nc1ncc(-c2cccc(-n3cnc4cc(-c5ccoc5)ccc43)c2)cn1`: the melting point was 222 to 223 °C. Consider `Nc1cc(-n2cc(C(=O)O)c(=O)c3cc(F)c(F)c(Cl)c32)c(F)cc1F`, for which the melting point fell in the range of 225 to 226 °C.

As for `CC(=O)N1c2ccc(Cl)cc2CC1C#N` (centres undefined), the melting point is 140 to 142 °C. The molecule `CCCN(c1ccncn1)n1cc(C)c2ccccc21` gave a melting point of 74 to 76 °C. For `C=CCc1cc(C(=O)OC(C)C)ccc1O`, the melting point was 79 to 80 °C. For the molecule `CCC(Cc1ccc(OC)c(OCCc2ccc(C(F)(F)F)cc2)c1)C(=O)O` (centres undefined), the melting point is 64 to 66 °C.

`Cc1nc(N)nc(N)c1C12CC3CC(CC(C3)C1)C2` gave a melting point of 254 to 258 °C. As for `COc1ccc(Cn2cnc3c(Cl)nc([N+](=O)[O-])nc32)cc1`, the figure is 181 to 182 °C.

With `CC(C)(C)CC(C)(C)c1ccc(OCCOCCO)c(O)c1`, the melting point lay in the range of 112 to 113 °C. In turn, `O=S(Cc1[nH]c2ccccc2c1Sc1ccccc1)c1ccccc1` (centres undefined) came in with a melting point of 71 to 74 °C. For `COc1ccc(S(=O)(=O)N2c3ccccc3-c3ccccc3C2C)cc1` (centres undefined), the melting point lay within 167 to 169 °C. `C#Cc1cnn2c(C(F)F)cc(-c3ccc(Cl)c(C)c3)nc12`: the melting point was determined as 143 °C. Turning to `Cc1nn(C)c(C)c1-c1cccc(-n2c(N)nc3ccccc32)c1`, the melting point was 198 to 200 °C. In the case of `CN1c2ccccc2Sc2cn(C)c(=O)c(C#N)c21` it was 236 to 237 °C; in that of `N#CCCNC(=O)C1=CC(CF)(CF)Oc2ccc(C(F)(F)C(F)(F)C(F)(F)C(F)(F)F)cc21`, 85 to 86 °C. The molecule `Cc1ccc(NC(=S)NC(NC(=O)c2ccc(C)cc2)C(F)(F)F)cc1` (centres undefined) registered a melting point of 192 to 193 °C. In turn, `Cc1cc(S(=O)(=O)NCC(C)c2ccccc2)ccc1Cl` (centres undefined) gave a melting point of 73 to 74 °C. In the case of `CC(C)C(=O)NC1C(OCc2ccccc2)=CC=CC1(Br)[N+](=O)[O-]` (centres undefined) it was 197 to 198 °C. Turning to `CON=C1CCC(C)(C)c2cc(C)c(-c3cc(C=C4SC(=O)NC4=O)ccc3N(C)C)cc21`, the melting point fell in the range of 254 to 256 °C. As to `CS(=O)c1[nH]cc(CCc2ccccc2)c1[N+](=O)[O-]` (centres undefined), the melting point lay within 172 to 173 °C. In turn, `COc1ccc2c(c1)CCCC2n1cc[nH]c1=S` (centres undefined) gave a melting point of 190 to 192 °C. As for `CCOc1ccc(C2(C(=O)O)CC(F)(F)C2(F)F)cc1` (centres undefined), the figure is 194 °C. As to `CCCCN(CCCC)c1nnc(N)s1`, the melting point lay within 116 to 117 °C. As for `CCOC(=O)CC[C@H](NC(=O)c1ccc(NCCCc2c(N(C(C)=O)C(C)=O)nc(NC(C)=O)[nH]c2=O)c(OC)c1)C(=O)OCC`, the melting point fell in the range of 73 to 84 °C. On to `COc1ccc(-c2nc(N)ncc2-c2ccc(=O)n(C)n2)cc1OC`, for which the melting point came to 232 °C.

In turn, `Clc1ccc(C2(Cn3ccnc3)OCC(COc3ccc(-c4ccccc4)cc3)O2)c(Cl)c1` (centres undefined) returned a melting point of 156 °C. `O[C@@H]1CN(Cc2ccccc2)C[C@@H]1Oc1cccc(Cl)c1` (relative stereo) gave a melting point of 86 to 87.5 °C. In the case of `O=C(Nc1ccccc1C(=O)NCCc1nccs1)c1ccc(Cl)cc1` it was 156 to 160 °C. With `CCOc1cc(C2=NNC(=O)[C@H]3CC=CC[C@@H]23)ccc1OC` (relative stereo), the melting point was in the range of 163 to 166 °C. Regarding `NC(Cc1cccc(O)c1)c1ccccc1` (centres undefined), the melting point is 179 to 181 °C. `O=C1C=Cc2ccc3ncccc3c2C1=O` returned a melting point of 215 to 216 °C.

In the case of `N#Cc1ccc(Nc2nc(Oc3c(Br)cc(Br)cc3Br)ccc2[N+](=O)[O-])cc1`, the melting point is 188 to 191 °C. In the case of `CC(=CC(=O)N1CCCC1C(=O)O)C(=O)c1ccc(Br)cc1` (centres undefined) it was 137 to 144 °C. `COc1cc2c(c3c1OC(C)(C)C3)C(c1ccc(-c3ccc(NC(C)=O)cc3)cc1)=NC(C)(C)C2` registered a melting point of 128 to 132 °C.

Take `COC(=O)c1cc(OC)cc(-c2ccc(N(C)C)cc2)n1`: the melting point is 157 to 158 °C. The molecule `O=C(O)c1ccc(OC(F)(F)F)c(Cl)c1Cl` returned a melting point of 123 to 126 °C. As for `CC(C)[C@H](C[C@H](O)[C@H](C)NC(=O)OC(C)(C)C)C(=O)NCCCn1ccnc1`, the figure is 148 to 150 °C; as for `NC(=O)c1c(F)cc(NC2CCNCC2)cc1F`, 166 to 168 °C; as for `Cc1nc2c(Cl)cc(F)c(-n3c(=O)cc(C(F)(F)F)n(C)c3=O)c2s1`, 83 to 85 °C.

For `CSc1ccc(C2=C(Br)C(=O)OC2)cc1`, the melting point lay in the range of 138 to 140 °C. As for `COc1ccc(CCC(=O)Nc2cc3c(c(C)c2C)OC(C)(C)C3c2ccc(C)cc2)cc1` (centres undefined), the figure is 149 to 150 °C; as for `CNC(C)=C(C#N)C(=O)c1ccc(Cl)cc1`, 152 °C. `CCSc1cn(C(C)C(=O)N(C)C)nc1-c1ccccc1` (centres undefined) came in with a melting point of 70 to 72 °C. As to `O=C1CC(Nc2ccccc2)C(=O)N1c1ccccc1` (centres undefined), the melting point fell in the range of 211 to 214 °C.

On to `CC(C)c1oc(C=Cc2ccccc2)nc1C(=O)O`, for which the melting point was 141 to 142 °C. `COc1cc2c(cc1OC)CN(CCCCc1ccc(NC(=O)c3cccc4c(=O)cc(-c5ccccc5)[nH]c34)cc1)CC2` showed a melting point of 204 °C. In the case of `CCOC(=O)C(C)(C)Oc1ccc(OCc2ccccc2)cc1C=O`, the melting point is 65 °C.

The molecule `COC(=O)C(C)c1nsc2ccc([N+](=O)[O-])cc12` (centres undefined) came in with a melting point of 88 to 90 °C. In the case of `CCCCCCCCCCCCNC(=O)n1nc(Oc2ncc(C(F)(F)F)cc2Cl)cc1C`, the melting point lay within 56 to 57 °C. As for `CN(C)C(=O)Nc1ccc(Oc2ccc3sncc3c2)c(Cl)c1`, the figure is 149 °C. In the case of `CCCc1nc2c(N)nc3ccccc3c2n1CCCCN(OC)C(C)=O` it was 138 to 140 °C. As for `O=S(=O)(CCCCl)Nc1ccc(OCc2ccc3ccccc3n2)cc1`, the figure is 117 °C.

The molecule `O=C1c2cc(F)ccc2S(=O)(=O)c2cc(C3=NCCN3)ccc21` showed a melting point of 248 to 249 °C. Regarding `COC(=O)C1=NN(c2ccccc2)C(C(=O)OC)=NN1c1ccccc1`, the melting point was in the range of 171 to 172 °C.

The molecule `CS(=O)(=O)c1ccc(-c2cc(CO[N+](=O)[O-])nn2C2CCCCCC2)cc1` returned a melting point of 119 to 120 °C. Molecule `CC(C)[C@H](NC(=O)N(C)Cc1cccnc1)C(=O)N[C@@H](Cc1ccccc1)[C@H](O)[C@@H](O)[C@H](Cc1ccccc1)NC(=O)[C@@H](NC(=O)N(C)Cc1cccnc1)C(C)C` displayed a melting point of 95 to 97 °C.

In the case of `N#CNC=Nc1ccc(-c2c[nH]cn2)cc1`, the melting point lay within 234 to 235 °C.

In turn, `O=C(Cc1ccccc1C(F)(F)F)c1c(O)c2cccnc2n(-c2ccccc2)c1=O` gave a melting point of 140 to 142 °C. Turning to `O=C(NC1N=C(c2ccccc2F)c2ccccc2NC1=O)OCc1ccccc1` (racemic), the melting point stood at 208 °C. Consider `O=C1Nc2ccccc2C(c2ccccc2)N1C1CCN(CC2CC2)CC1` (centres undefined), for which the melting point fell in the range of 276 to 281 °C. As for `Cc1oc(-c2ccccc2)nc1COc1cccc(CN(O)C(N)=O)c1`, the figure is 151 to 152 °C; as for `O=c1[nH]c(=S)[nH]c2c1cnn2CC(O)c1ccccc1` (centres undefined), 264 to 265 °C. `CCOC(=O)c1cnc2c(cnn2CC)c1O` came in with a melting point of 85 to 87 °C.

Molecule `O=C(NCCCS(=O)(=O)c1ccncc1)c1cccs1` had a melting point of 124 to 125 °C. As for `O=S(=O)(NCCc1ccc(CN2CCCCC2)cc1)c1ccc(Br)cc1`, the figure is 109 to 110 °C; as for `O=C(c1ccccc1)c1cnn2c1NCCC2`, 173 to 174 °C. For `Cc1c(C#N)sc2nc(CCc3ccccc3)nc(NC3CCC3)c12`, the melting point lay within 153 to 155 °C. In the case of `CCCCCCCCCCCCC#CCC(NC(C)=O)(C(=O)OCC)C(=O)OCC`, the melting point lay within 43 to 43.5 °C. Consider `CC(C)(CCC(C)(C)NCc1ccccc1O)NCc1ccccc1O`, for which the melting point is 111 to 112 °C. Take `NC(=O)CN1C(=O)[C@@H](NC(=O)[C@@H]2CCC(=O)C2)[C@H](c2ccccc2)Sc2ccccc21`: the melting point lay within 135 to 150 °C. Consider `CCOC(=O)c1cnn(-c2ccc(Cl)cc2)c1`, for which the melting point was 127 to 128 °C.

`CC12CCC(C(=O)O)=CC1=CCC1C2CCC2(C)C(C(=O)CCc3ccccc3)CCC12` (centres undefined) returned a melting point of 218 to 220 °C.

On to `NC(=O)CNC(=O)c1cccc(-c2ccnc3cc(Cc4cccc(C(F)(F)F)c4)sc23)c1`, for which the melting point is 183 to 184 °C. As for `CCOC(=O)C(=CNC1CC1)C(=O)c1cc(F)c(Cl)cc1Cl`, the figure is 89 to 90 °C; as for `CNCCc1ccc(CCC(=O)O)cc1`, 211 to 212 °C; as for `CC(=O)Nc1ccc(S(=O)(=O)Nn2cc(-c3ccccc3)c3ccccc32)cc1`, 190 to 193 °C.

In turn, `COc1cccc(COC(=O)c2ncn3c2[C@@H]2CCCN2C(=O)c2c(Cl)cccc2-3)c1` came in with a melting point of 131 to 133 °C.

`CNC1(c2cccs2)CCC(=O)CC1` yielded a melting point of 72 to 74 °C.

On to `O[C@H]1CC[C@H](N(Cc2ccccc2)Cc2ccccc2)CC1`, for which the melting point was 97 to 99 °C. In the case of `COc1ccc(C(=O)C2=C(O)C(=O)N(c3nnc(C(F)(F)F)s3)C2c2ccc(C(C)(C)C)cc2)cc1` (centres undefined), the melting point was 271 °C. `CC(C)NC(=O)NC1CCCc2sccc21` (centres undefined): the melting point fell in the range of 223 to 226 °C. `CC(C)(C)C(=O)Nc1nc(CC(=O)Nc2cccc(C(F)(F)F)c2)cs1` registered a melting point of 147 to 152 °C.

In general, melting point refers to the temperature, or range, at which the solid turns liquid.
